Source: ChEMBL document CHEMBL3046432, “Synthesis of new series of pyrimido[4,5-b][1,4] benzothiazines as 15-lipoxygenase inhibitors and study of their inhibitory mechanism” (Med Chem Res, 2013)
pIC50, pKi: −log10 of the molar value.

What was measured:
[1] = test system: Radical scavenging activity; experiment: Antioxidant activity assessed as inhibition of DPPH radical […]; format: functional
[2] = biological target: T1, Seed linoleate 13S-lipoxygenase-1 (Glycine max, UniProt P08170); experiment: Inhibition of Glycine max (soybean) 15-lipoxygenase activity assessed as decrease in peroxide formation using linoleic acid as substrate preincubated with enzyme for 5 min prior to substrate addition measured after 7 min by MBTH-DMAB method
T1 sequence (P08170 whole entry): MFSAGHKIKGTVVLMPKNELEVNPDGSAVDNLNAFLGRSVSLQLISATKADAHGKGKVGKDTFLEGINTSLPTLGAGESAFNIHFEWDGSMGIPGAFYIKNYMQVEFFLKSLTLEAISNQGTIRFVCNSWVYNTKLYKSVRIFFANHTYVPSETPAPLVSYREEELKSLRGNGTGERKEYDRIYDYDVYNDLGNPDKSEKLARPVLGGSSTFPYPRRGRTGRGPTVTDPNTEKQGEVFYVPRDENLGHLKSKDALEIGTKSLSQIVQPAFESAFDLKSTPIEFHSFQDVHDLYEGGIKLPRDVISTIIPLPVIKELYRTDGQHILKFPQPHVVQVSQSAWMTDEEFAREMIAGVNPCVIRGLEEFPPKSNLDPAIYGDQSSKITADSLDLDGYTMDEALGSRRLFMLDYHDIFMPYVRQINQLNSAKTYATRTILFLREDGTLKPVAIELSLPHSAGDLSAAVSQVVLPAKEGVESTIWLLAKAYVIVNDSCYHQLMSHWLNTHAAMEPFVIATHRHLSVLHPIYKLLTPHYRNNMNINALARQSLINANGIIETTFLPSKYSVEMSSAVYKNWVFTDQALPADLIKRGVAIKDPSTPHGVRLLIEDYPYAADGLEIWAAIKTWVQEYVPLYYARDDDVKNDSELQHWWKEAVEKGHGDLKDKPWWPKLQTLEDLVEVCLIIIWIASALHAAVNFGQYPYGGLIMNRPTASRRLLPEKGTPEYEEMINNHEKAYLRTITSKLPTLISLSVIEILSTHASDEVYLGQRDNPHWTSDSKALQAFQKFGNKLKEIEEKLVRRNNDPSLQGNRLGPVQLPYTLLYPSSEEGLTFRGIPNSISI

[3] = biological target: T1, Seed linoleate 13S-lipoxygenase-1; experiment: Inhibition of Glycine max (soybean) 15-lipoxygenase activity using linoleic acid as substrate by MBTH-DMAB method

SMILES	pIC50 [1]	pKi [2]	pIC50 [3]
CCCc1nc(N2CCOCC2)nc2c1Nc1ccccc1S2	3.17	5.70	3.14
CCCc1nc(N2CCCCC2)nc2c1Nc1ccccc1S2	3.21	6.18	3.92
CCCc1nc(N2CCN(c3ccccc3)CC2)nc2c1Nc1ccccc1S2	3.45	5.93	3.39
CCCc1nc(N2CCC(C)CC2)nc2c1Nc1ccccc1S2	3.22	6.31	4.06
CCCc1nc(N2CCCC2)nc2c1Nc1ccccc1S2	3.51	5.73	3.21
Cc1nc(N2CCN(C)CC2)nc2c1Nc1ccccc1S2	4.16	6.70	4.71
CCCc1nc(N2CCN(C)CC2)nc2c1Nc1ccccc1S2	4.76	6.72	5.05
